Key:
[1] = target: GDP-bound NRAS wild-type protein (Homo sapiens, UniProt P01111); assay: Binding to NRAS by surface plasmon resonance (SPR), Single Cycle Kinetics; conditions: SPR, GDP-bound NRAS wild-type vs GDP-bound KRAS wild-type
[2] = target: GDP-bound HRAS wild-type protein (Homo sapiens, UniProt P01112); assay: Binding to HRAS by surface plasmon resonance (SPR), Single Cycle Kinetics; conditions: SPR, GDP-bound HRAS wild-type vs GDP-bound KRAS wild-type
Chain of GDP-bound HRAS wild-type protein (P01112 whole entry): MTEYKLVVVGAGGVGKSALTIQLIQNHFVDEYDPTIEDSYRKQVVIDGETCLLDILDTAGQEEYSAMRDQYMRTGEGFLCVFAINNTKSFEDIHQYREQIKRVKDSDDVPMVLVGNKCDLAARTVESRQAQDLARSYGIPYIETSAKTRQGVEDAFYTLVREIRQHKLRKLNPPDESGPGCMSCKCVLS

Chain of GDP-bound NRAS wild-type protein (P01111 whole entry): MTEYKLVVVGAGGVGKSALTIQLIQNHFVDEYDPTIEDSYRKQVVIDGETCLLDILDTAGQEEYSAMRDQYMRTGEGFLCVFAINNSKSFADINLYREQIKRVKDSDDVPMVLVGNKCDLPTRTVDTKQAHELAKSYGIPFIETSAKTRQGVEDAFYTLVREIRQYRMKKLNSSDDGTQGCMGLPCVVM

SMILES	NRAS/KRAS (ratio of KD value with respect to NRAS to KD value with respect to KRAS) [1]	HRAS/KRAS (ratio of KD value with respect to HRAS to KD value with respect to KRAS) [2]
CCC[C@H]1C(=O)N[C@@H]([C@@H](C)CC)C(=O)N(C)CC(=O)N(C)[C@H]2C/C=C\CCN(C2=O)[C@@H](Cc2ccc(C(F)(F)F)cc2)C(=O)N(C)CC(=O)N[C@@H](CCc2ccc(C(F)(F)F)c(OC)c2)C(=O)N2C[C@H](OCC)C[C@H]2C(=O)N(C)C2(CCC2)C(=O)N(C)[C@@H](C2CCCC2)C(=O)N(C)[C@H](C(=O)N(C)C)CC(=O)N1C [PP2312]	A (a compound having 10 or more and less than 20 is denoted as A)	B (a compound having 3 or more and less than 10 is denoted as B)
CCC[C@H]1C(=O)N[C@@H]([C@@H](C)CC)C(=O)N(C2CC2)CC(=O)N(C)[C@H]2C/C=C\CCN(C2=O)[C@@H](Cc2ccc(C(F)(F)F)cc2)C(=O)N(C)CC(=O)N[C@@H](CCc2ccc(C(F)(F)F)c(OC)c2)C(=O)N2C[C@H](OCC)C[C@H]2C(=O)N(C)C2(CCC2)C(=O)N(C)[C@@H](C(CC)CC)C(=O)N(C)[C@H](C(=O)N(C)C)CC(=O)N1C [PP2313]	AA (a compound having 20 or more is denoted as AA)	A (a compound having 10 or more and less than 20 is denoted as A)
CCOC[C@H]1C(=O)N[C@@H]([C@@H](C)CC)C(=O)N(C2CC2)CC(=O)N(C)[C@H]2C/C=C\CCN(C2=O)[C@@H](Cc2ccc(C(F)(F)F)cc2)C(=O)N(C)CC(=O)N[C@@H](CCc2ccc(C(F)(F)F)c(OC)c2)C(=O)N2C[C@H](OCC)C[C@H]2C(=O)N(C)C2(CCC2)C(=O)N(C)[C@@H](C(CC)CC)C(=O)N(C)[C@H](C(=O)N(C)C)CC(=O)N1C [PP2315]	A (a compound having 10 or more and less than 20 is denoted as A)	A (a compound having 10 or more and less than 20 is denoted as A)
CCC[C@H]1C(=O)N[C@@H]([C@@H](C)CC)C(=O)N(C2CC2)CC(=O)N(C)[C@H]2C/C=C\CCN(C2=O)[C@@H](Cc2ccc(C(F)(F)F)cc2)C(=O)N(C)CC(=O)N[C@@H](CCc2ccc(C(F)(F)F)c(OC)c2)C(=O)N2C[C@H](OCC)C[C@H]2C(=O)N(C)C2(CCC2)C(=O)N(C)[C@@H](C2CCCC2)C(=O)N(C)[C@H](C(=O)N(C)C)CC(=O)N1C [PP2316, (2S,8S,12R,14S,20S,23S,27S,30S,36S,38Z)-20-cyclopentyl-32-cyclopropyl-12-ethoxy-8-[2-[3-methoxy-4-(trifluoromethyl)phenyl]ethyl]-N,N,4,16,19,22,26,35-octamethyl-30-[(1S)-1-methylpropyl]-3,6,9,15,18,21,25,28,31,34,42-undecaoxo-27-propyl-2-[[4-(trifluoromethyl)phenyl]methyl]spiro[1,4,7,10,16,19,22,26,29,32,35-undecazatricyclo[34.5.1.0^10,14]dotetracont-38-ene-17,1′-cyclobutane]-23-carboxamide]	A (a compound having 10 or more and less than 20 is denoted as A)	A (a compound having 10 or more and less than 20 is denoted as A)
CCC[C@H]1C(=O)N[C@@H]([C@@H](C)CC)C(=O)N2CCC[C@H]2C(=O)N(C)[C@H]2C/C=C\CCN(C2=O)[C@@H](Cc2ccc(C(F)(F)F)cc2)C(=O)N(C)CC(=O)N[C@@H](CCc2ccc(C(F)(F)F)c(OC)c2)C(=O)N2C[C@H](OCC)C[C@H]2C(=O)N(C)C2(CCC2)C(=O)N(C)[C@@H](C(CC)CC)C(=O)N(C)[C@H](C(=O)N(C)C)CC(=O)N1C [PP2317]	A (a compound having 10 or more and less than 20 is denoted as A)	A (a compound having 10 or more and less than 20 is denoted as A)
CCCOC[C@H]1C(=O)N[C@@H]([C@@H](C)CC)C(=O)N(C2CC2)CC(=O)N(C)[C@H]2C/C=C\CCN(C2=O)[C@@H](Cc2ccc(C(F)(F)F)cc2)C(=O)N(C)CC(=O)N[C@@H](CCc2ccc(C(F)(F)F)c(OC)c2)C(=O)N2C[C@H](OCC)C[C@H]2C(=O)N(C)C2(CCC2)C(=O)N(C)[C@@H](C2CCCC2)C(=O)N(C)[C@H](C(=O)N(C)C)CC(=O)N1C [PP2318]	A (a compound having 10 or more and less than 20 is denoted as A)	A (a compound having 10 or more and less than 20 is denoted as A)
CCOC[C@H]1C(=O)N[C@@H]([C@@H](C)CC)C(=O)N2CCC[C@H]2C(=O)N(C)[C@H]2C/C=C\CCN(C2=O)[C@@H](Cc2ccc(C(F)(F)F)cc2)C(=O)N(C)CC(=O)N[C@@H](CCc2ccc(C(F)(F)F)c(OC)c2)C(=O)N2C[C@H](OCC)C[C@H]2C(=O)N(C)C2(CCC2)C(=O)N(C)[C@@H](C(CC)CC)C(=O)N(C)[C@H](C(=O)N(C)C)CC(=O)N1C [PP2319]	AA (a compound having 20 or more is denoted as AA)	A (a compound having 10 or more and less than 20 is denoted as A)
CCC[C@H]1C(=O)N[C@@H]([C@@H](C)CC)C(=O)N2CCC[C@H]2C(=O)N(C)[C@H]2C/C=C\CCN(C2=O)[C@@H](Cc2ccc(C(F)(F)F)cc2)C(=O)N(C)CC(=O)N[C@@H](CCc2ccc(C(F)(F)F)c(OC)c2)C(=O)N2C[C@H](OCC)C[C@H]2C(=O)N(C)C2(CCC2)C(=O)N(C)[C@@H](C2CCCC2)C(=O)N(C)[C@H](C(=O)N(C)C)CC(=O)N1C [PP2320, (1S,4S,10S,13S,17S,20S,26S,28R,32S,38S,42Z)-20-cyclopentyl-28-ethoxy-32-[2-[3-methoxy-4-(trifluoromethyl)phenyl]ethyl]-N,N,2,14,18,21,24,36-octamethyl-10-[(1S)-1-methylpropyl]-3,9,12,15,19,22,25,31,34,37,45-undecaoxo-13-propyl-38-[[4-(trifluoromethyl)phenyl]methyl]spiro[2,8,11,14,18,21,24,30,33,36,39-undecazatetracyclo[37.5.1.0^4,8.0^26,30]pentatetracont-42-ene-23,1′-cyclobutane]-17-carboxamide]	A (a compound having 10 or more and less than 20 is denoted as A)	A (a compound having 10 or more and less than 20 is denoted as A)
CCCOC[C@H]1C(=O)N[C@@H]([C@@H](C)CC)C(=O)N2CCC[C@H]2C(=O)N(C)[C@H]2C/C=C\CCN(C2=O)[C@@H](Cc2ccc(C(F)(F)F)cc2)C(=O)N(C)CC(=O)N[C@@H](CCc2ccc(C(F)(F)F)c(OC)c2)C(=O)N2C[C@H](OCC)C[C@H]2C(=O)N(C)C2(CCC2)C(=O)N(C)[C@@H](C2CCCC2)C(=O)N(C)[C@H](C(=O)N(C)C)CC(=O)N1C [PP2322]	A (a compound having 10 or more and less than 20 is denoted as A)	B (a compound having 3 or more and less than 10 is denoted as B)
CCCOC[C@H]1C(=O)N[C@@H]([C@@H](C)CC)C(=O)N(C)CC(=O)N(C)[C@H]2C/C=C\CCN(C2=O)[C@@H](Cc2ccc(C)cc2)C(=O)N(C)CC(=O)N[C@@H](CCc2ccc(C(F)(F)F)c(OC)c2)C(=O)N2C[C@H](OCC)C[C@H]2C(=O)N(C)C2(CCC2)C(=O)N(C)[C@@H](C(CC)CC)C(=O)N(C)[C@H](C(=O)N(C)C)CC(=O)N1C [PP2323]	A (a compound having 10 or more and less than 20 is denoted as A)	A (a compound having 10 or more and less than 20 is denoted as A)
CCC[C@H]1C(=O)N[C@@H]([C@@H](C)CC)C(=O)N(C2CC2)CC(=O)N(C)[C@H]2C/C=C\CCN(C2=O)[C@@H](Cc2ccc(C)cc2)C(=O)N(C)CC(=O)N[C@@H](CCc2ccc(C(F)(F)F)c(OC)c2)C(=O)N2C[C@H](OCC)C[C@H]2C(=O)N(C)C2(CCC2)C(=O)N(C)[C@@H](C(CC)CC)C(=O)N(C)[C@H](C(=O)N(C)C)CC(=O)N1C [PP2325]	A (a compound having 10 or more and less than 20 is denoted as A)	A (a compound having 10 or more and less than 20 is denoted as A)
CCCOC[C@H]1C(=O)N[C@@H]([C@@H](C)CC)C(=O)N(C)CC(=O)N(C)[C@H]2C/C=C\CCN(C2=O)[C@@H](Cc2ccc(C)cc2)C(=O)N(C)CC(=O)N[C@@H](CCc2ccc(C(F)(F)F)c(OC)c2)C(=O)N2C[C@H](OCC)C[C@H]2C(=O)N(C)C2(CCC2)C(=O)N(C)[C@@H](C2CCCC2)C(=O)N(C)[C@H](C(=O)N(C)C)CC(=O)N1C [PP2326]	A (a compound having 10 or more and less than 20 is denoted as A)	B (a compound having 3 or more and less than 10 is denoted as B)
CCCOC[C@H]1C(=O)N[C@@H]([C@@H](C)CC)C(=O)N(C2CC2)CC(=O)N(C)[C@H]2C/C=C\CCN(C2=O)[C@@H](Cc2ccc(C)cc2)C(=O)N(C)CC(=O)N[C@@H](CCc2ccc(C(F)(F)F)c(OC)c2)C(=O)N2C[C@H](OCC)C[C@H]2C(=O)N(C)C2(CCC2)C(=O)N(C)[C@@H](C(CC)CC)C(=O)N(C)[C@H](C(=O)N(C)C)CC(=O)N1C [PP2327]	A (a compound having 10 or more and less than 20 is denoted as A)	A (a compound having 10 or more and less than 20 is denoted as A)

Source: US20250230193A1, “CYCLIC COMPOUND HAVING SELECTIVE KRAS INHIBITORY EFFECT ON HRAS AND NRAS” (CHUGAI SEIYAKU KABUSHIKI KAISHA, priority 2022, published 2025)
